In US12258336B2, “Preparation of seimicarbazide-sensitive amine oxidase inhibitor and use thereof” (SHANGHAI ENNOVABIO PHARMACEUTICALS CO., LTD., priority 2018, dated 2025):

Experiments:
[1] = biological target: T1, rat SSAO protein (Rattus norvegicus, UniProt O08590); test: In vitro inhibitory activity on SSAO/VAP-1 (MAO-Glo assay), rat; type: biochemical
T1 construct: Eli Lilly (provided, not a catalogue product)
T1 sequence (O08590 1-763): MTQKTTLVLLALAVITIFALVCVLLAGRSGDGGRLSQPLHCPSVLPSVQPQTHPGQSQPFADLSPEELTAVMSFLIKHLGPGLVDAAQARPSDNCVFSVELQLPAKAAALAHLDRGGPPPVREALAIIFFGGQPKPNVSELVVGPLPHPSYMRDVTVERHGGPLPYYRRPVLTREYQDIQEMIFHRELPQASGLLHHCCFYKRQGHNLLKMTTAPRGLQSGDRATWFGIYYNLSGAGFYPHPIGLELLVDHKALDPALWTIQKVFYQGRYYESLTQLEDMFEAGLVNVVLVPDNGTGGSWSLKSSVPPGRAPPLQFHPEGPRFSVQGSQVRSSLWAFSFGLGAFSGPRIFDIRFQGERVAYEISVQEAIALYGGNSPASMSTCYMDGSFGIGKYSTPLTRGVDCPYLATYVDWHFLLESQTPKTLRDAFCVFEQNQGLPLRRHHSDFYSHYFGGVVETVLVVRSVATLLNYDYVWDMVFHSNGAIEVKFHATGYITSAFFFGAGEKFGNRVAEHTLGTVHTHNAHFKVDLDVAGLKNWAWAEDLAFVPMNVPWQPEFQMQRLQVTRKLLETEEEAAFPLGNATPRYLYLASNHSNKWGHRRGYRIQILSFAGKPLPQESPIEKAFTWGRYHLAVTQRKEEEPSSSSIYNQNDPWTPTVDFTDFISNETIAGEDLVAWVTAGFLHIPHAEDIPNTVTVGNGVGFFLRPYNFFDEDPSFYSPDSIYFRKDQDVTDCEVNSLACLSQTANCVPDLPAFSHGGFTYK
Description: (§1) This assay was used to evaluate the in vitro inhibitory activity of the compounds on SSAO/VAP-1 of different species. Recombinant human SSAO protein, mouse SSAO protein or rat SSAO protein (provided by Eli Lilly) were used. The enzyme activity detection kit, MAO-Glo Assay kit (V1402) was purchased from Promega. Enzyme reaction buffer (50 mM HEPES, 120 mM NaCl, 5 mM KCl, 2 mM CaCl2, 1.4 mM MgCl2, 0.001% Tween-20, pH7.4) was prepared. The test compound was dissolved in DMSO and diluted by 3-fold concentration in gradient. The final concentration of test compound in a 10 μL reaction system was 1 μM to 0.05 nM when SSAO was detected. The content of DMSO in the detection reaction was 1%. After the solution of test compound in DMSO was diluted in the enzyme reaction buffer at a volume ratio of 1:25, 2.5 μL of which was added to each well of detection plate, two replicates for each concentration. 5 μL of SSAO protein diluted in the enzyme reaction buffer was added to each well, the final concentration of which was 10 nM to 80 nM in 10 μL reaction system. The mixture was incubated at room temperature for 10 minutes. 2.5 μL of the reaction substrate diluted in the enzyme reaction buffer was added to each well, the final concentration of which was 10 μM in 10 μL reaction system. After the mixture was reacted at room temperature for 120 minutes, 10 μL of detection reagent was added to each well. The reaction solution was incubated for 20 minutes at room temperature, and the plate was read with Synergy Neo 2 for detection. The value was converted into inhibition rate by the following formula: Inhibition rate=(Signalpositive−Signaltest)/(Signalpositive−Signalnegative)×100%
(§2) Signalpositive was positive control without test compound. Signalnegative was negative control without test compound and SSAO enzyme, and Signaltest was detection value of each compound at different concentrations. IC50 value was calculated by using 4 parameter curve fitting.

[2] = biological target: T2, mouse SSAO protein (Mus musculus, UniProt O70423); test: In vitro inhibitory activity on SSAO/VAP-1 (MAO-Glo assay), mouse; type: biochemical
T2 construct: Eli Lilly (provided, not a catalogue product)
T2 sequence (O70423 1-765): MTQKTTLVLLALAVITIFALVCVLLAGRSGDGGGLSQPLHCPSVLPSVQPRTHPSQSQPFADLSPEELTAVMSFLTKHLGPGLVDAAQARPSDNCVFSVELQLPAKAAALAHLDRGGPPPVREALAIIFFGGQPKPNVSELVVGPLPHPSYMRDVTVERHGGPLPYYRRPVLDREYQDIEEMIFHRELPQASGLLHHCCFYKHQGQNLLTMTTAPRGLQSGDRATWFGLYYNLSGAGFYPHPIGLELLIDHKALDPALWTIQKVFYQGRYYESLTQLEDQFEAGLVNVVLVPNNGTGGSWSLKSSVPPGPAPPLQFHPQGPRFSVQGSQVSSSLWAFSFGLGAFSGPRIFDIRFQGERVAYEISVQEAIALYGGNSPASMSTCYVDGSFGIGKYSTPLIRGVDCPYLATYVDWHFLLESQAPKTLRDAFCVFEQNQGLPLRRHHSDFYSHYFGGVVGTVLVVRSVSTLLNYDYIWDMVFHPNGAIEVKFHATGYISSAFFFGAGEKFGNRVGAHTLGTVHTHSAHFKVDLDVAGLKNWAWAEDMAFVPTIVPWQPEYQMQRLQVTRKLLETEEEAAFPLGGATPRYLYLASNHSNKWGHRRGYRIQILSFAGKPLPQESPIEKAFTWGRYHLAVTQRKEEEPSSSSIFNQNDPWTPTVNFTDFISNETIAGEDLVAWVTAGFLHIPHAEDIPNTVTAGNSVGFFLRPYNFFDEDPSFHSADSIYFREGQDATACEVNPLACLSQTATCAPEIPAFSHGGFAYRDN
Description: as §1, §2

IC50 [1] [nM]	IC50 [2] [nM]	SMILES
< 100	< 100	COC1CC2CC1CN2c1ncc(OC/C(=C/F)CN)cn1 (stereo not drawn) [Example 2]
< 100	< 100	NC/C(=C\F)COc1cnc(N2CCN(C3COC3)CC2)nc1 [Example 4, (E)-3-fluoro-2-(((2-(4-(oxbutan-3-yl)piperazin-1-yl)pyrimidin-5-yl)oxo)methyl)prop-2-en-1-amine]

SMILES	IC50 [1] [nM]	IC50 [2] [nM]
COC1CC2CCC(C1)N2c1ncc(OC/C(=C/F)CN)cn1 (stereo not drawn) [Example 12]	< 100	< 100
